Source: ChEMBL document CHEMBL1124516, “Synthesis of 2,3-diaziridinyl-1,4-naphthoquinone sulfonate derivatives as potential antineoplastic agents” (1989)

What was measured:
Mus musculus [1] = assay: Average change in weight in mice bearing the L1210 Leukemia, when compound (20 mg/kg) was administered once daily beginning 24 hr after tumor implantation, for 6 consecutive days.; assay type: functional
Mus musculus [2] = assay: Average change in weight in mice bearing the L1210 Leukemia, when compound (25 mg/kg) was administered once daily beginning 24 hr after tumor implantation, for 6 consecutive days.; assay type: functional
Mus musculus [3] = assay: Average change in weight in mice bearing the L1210 Leukemia, when compound(30 mg/kg) was administered once daily beginning 24 hr after tumor implantation, for 6 consecutive days.; assay type: functional
L1210 [4] = assay: Percentage survival time of L1210 (murine leukemia) inoculated mice following 25 mg/kg i.p.; assay type: functional, Mus musculus; details: route intraperitoneal
L1210 [5] = assay: Percentage survival time of L1210 (murine leukemia) inoculated mice following 30 mg/kg i.p.; assay type: functional, Mus musculus; details: route intraperitoneal
L1210 [6] = assay: Percentage survival time of L1210 (murine leukemia) inoculated mice following 20 mg/kg i.p.; assay type: functional, Mus musculus; details: route intraperitoneal
Mus musculus [7] = assay: Number of mice surviving for a period greater than 50 days when a dose of 30 mg/Kg is administered intraperitoneally; tested in 5 mice; assay type: functional
Mus musculus [8] = assay: Number of mice survived for a period greater than 50 days when a dose of 20 mg/Kg is administered intraperitoneally; tested in 5 mice; assay type: functional
L1210 [9] = assay: Number L1210 (murine leukemia) inoculated mice surviving for >50 days following 25 mg/kg i.p.; assay type: functional, Mus musculus; details: route intraperitoneal
Mus musculus [10] = assay: Average change in weight in mice bearing the B16 Melanoma, when compound(50 mg/kg) was administered intraperitoneally beginning 24 hr after tumor implantation, daily once for 6 consecutive days.; assay type: functional
Mus musculus [11] = assay: Average change in weight in mice bearing the B16 Melanoma, when compound(150 mg/kg) was administered beginning 24 hr after tumor implantation, daily once for 6 consecutive days.; assay type: functional
Mus musculus [12] = assay: Average change in weight in mice bearing the B16 Melanoma, when compound(100 mg/kg) was administered beginning 24 hr after tumor implantation, daily once for 6 consecutive days.; assay type: functional
Mus musculus [13] = assay: The ratio of the survival time of treated to control animals x 100 in mice bearing B16 Melanoma, when compound (100 mg/kg) was administered intraperitoneally; assay type: functional
Mus musculus [14] = assay: The ratio of the survival time of treated to control animals x 100 in mice bearing B16 Melanoma, when compound (150 mg/kg) was administered intraperitoneally; assay type: functional
Mus musculus [15] = assay: The ratio of the survival time of treated to control animals x 100 in mice bearing B16 Melanoma, when compound (50 mg/kg) was administered intraperitoneally; assay type: functional

Structure (SMILES): O=C1C(N2CC2)=C(N2CC2)C(=O)c2c(OS(=O)(=O)c3ccc([N+](=O)[O-])cc3[N+](=O)[O-])cccc21
- Average change in body weight (Mus musculus [1]): 2.3%
- Average body weight change (Mus musculus [2]): 4.8%
- Average change in body weight (Mus musculus [3]): -1.3%
- Activity (L1210 [4]): 105
- Activity (L1210 [5]): 100
- Activity (L1210 [6]): 111
- Survivals (Mus musculus [7]): 0
- Survivals (Mus musculus [8]): 0
- Survivals (L1210 [9]): 0

Structure (SMILES): Cc1ccc(S(=O)(=O)Oc2cccc3c2C(=O)C=C(N2CC2)C3=O)cc1
- Average change in body weight (Mus musculus [1]): 7.3%
- Average body weight change (Mus musculus [2]): 5.1%
- Average change in body weight (Mus musculus [3]): 1.2%
- Activity (L1210 [4]): 103
- Activity (L1210 [5]): 111
- Activity (L1210 [6]): 102
- Survivals (Mus musculus [7]): 0
- Survivals (Mus musculus [8]): 0
- Survivals (L1210 [9]): 0

Structure (SMILES): CC1(C)C2CCC1(CS(=O)(=O)Oc1cccc3c1C(=O)C(N1CC1)=C(N1CC1)C3=O)C(=O)C2 (stereo not drawn)
- Average change in body weight (Mus musculus [1]): -9.3%
- Average body weight change (Mus musculus [2]): -3.5%
- Average change in body weight (Mus musculus [3]): -9.2%
- Activity (L1210 [4]): 148
- Activity (L1210 [5]): 168
- Activity (L1210 [6]): 136
- Survivals (Mus musculus [7]): 0
- Survivals (Mus musculus [8]): 0
- Survivals (L1210 [9]): 0

Structure (SMILES): O=C1C(N2CC2)=C(N2CC2)C(=O)c2c(OS(=O)(=O)c3cccc4cccnc34)cccc21
- Average body weight change (Mus musculus [10]): -1.7%
- Average change in body weight (Mus musculus [1]): -6.6%
- Average body weight change (Mus musculus [2]): -6.5%
- Average change in body weight (Mus musculus [3]): -8%
- Average change in body weight (Mus musculus [11]): -14.3%
- Average change in body weight (Mus musculus [12]): -8.2%
- Activity (Mus musculus [13]): 219
- Activity (Mus musculus [14]): 239
- Activity (Mus musculus [15]): 195
- Activity (L1210 [4]): 418
- Activity (L1210 [5]): 291
- Activity (L1210 [6]): 332
- Survivals (Mus musculus [7]): 3
- Survivals (Mus musculus [8]): 3
- Survivals (L1210 [9]): 4

Structure (SMILES): CN(C)c1cccc2c(S(=O)(=O)Oc3cccc4c3C(=O)C(N3CC3)=C(N3CC3)C4=O)cccc12
- Average change in body weight (Mus musculus [1]): 2.2%
- Average body weight change (Mus musculus [2]): 3.8%
- Average change in body weight (Mus musculus [3]): 3.9%
- Activity (L1210 [4]): 115
- Activity (L1210 [5]): 117
- Activity (L1210 [6]): 110
- Survivals (Mus musculus [7]): 0
- Survivals (Mus musculus [8]): 0
- Survivals (L1210 [9]): 0

Structure (SMILES): O=C1C(N2CC2)=C(N2CC2)C(=O)c2c(OS(=O)(=O)Cc3ccccc3)cccc21
- Average change in body weight (Mus musculus [1]): 2.4%
- Average body weight change (Mus musculus [2]): 3.1%
- Average change in body weight (Mus musculus [3]): -3%
- Activity (L1210 [4]): 153
- Activity (L1210 [5]): 141
- Activity (L1210 [6]): 127
- Survivals (Mus musculus [7]): 0
- Survivals (Mus musculus [8]): 0
- Survivals (L1210 [9]): 0

Structure (SMILES): Cc1cc(C)c(S(=O)(=O)Oc2cccc3c2C(=O)C(N2CC2)=C(N2CC2)C3=O)c(C)c1
- Average change in body weight (Mus musculus [1]): -0.4%
- Average body weight change (Mus musculus [2]): -2.5%
- Average change in body weight (Mus musculus [3]): -2.6%
- Activity (L1210 [4]): 113
- Activity (L1210 [5]): 124
- Activity (L1210 [6]): 113
- Survivals (Mus musculus [7]): 0
- Survivals (Mus musculus [8]): 0
- Survivals (L1210 [9]): 0

Structure (SMILES): O=C1C(N2CC2)=C(N2CC2)C(=O)c2c(OS(=O)(=O)/C=C/c3ccccc3)cccc21
- Average change in body weight (Mus musculus [1]): -3.5%
- Average body weight change (Mus musculus [2]): 1.9%
- Average change in body weight (Mus musculus [3]): -1%
- Activity (L1210 [4]): 130
- Activity (L1210 [5]): 150
- Activity (L1210 [6]): 132
- Survivals (Mus musculus [7]): 0
- Survivals (Mus musculus [8]): 0
- Survivals (L1210 [9]): 0

Structure (SMILES): CCc1ccc(S(=O)(=O)Oc2cccc3c2C(=O)C(N2CC2)=C(N2CC2)C3=O)cc1
- Average change in body weight (Mus musculus [1]): 8.4%
- Average body weight change (Mus musculus [2]): 13.6%
- Average change in body weight (Mus musculus [3]): 9.9%
- Activity (L1210 [4]): 151
- Activity (L1210 [5]): 172
- Activity (L1210 [6]): 147
- Survivals (Mus musculus [7]): 0
- Survivals (Mus musculus [8]): 0
- Survivals (L1210 [9]): 0

Structure (SMILES): CC(C)c1cc(C(C)C)c(S(=O)(=O)Oc2cccc3c2C(=O)C(N2CC2)=C(N2CC2)C3=O)c(C(C)C)c1
- Average change in body weight (Mus musculus [1]): 7.8%
- Average body weight change (Mus musculus [2]): 9%
- Average change in body weight (Mus musculus [3]): 7.4%
- Activity (L1210 [4]): 102
- Activity (L1210 [5]): 100
- Activity (L1210 [6]): 100
- Survivals (Mus musculus [7]): 0
- Survivals (Mus musculus [8]): 0
- Survivals (L1210 [9]): 0

Structure (SMILES): O=C1C(N2CC2)=C(N2CC2)C(=O)c2c(OS(=O)(=O)c3cccs3)cccc21
- Average body weight change (Mus musculus [10]): -10.8%
- Average change in body weight (Mus musculus [1]): -2.3%
- Average body weight change (Mus musculus [2]): -4.7%
- Average change in body weight (Mus musculus [3]): -6.4%
- Average change in body weight (Mus musculus [11]): -22.7%
- Average change in body weight (Mus musculus [12]): -18.2%
- Activity (Mus musculus [13]): 161
- Activity (Mus musculus [14]): 77
- Activity (Mus musculus [15]): 156
- Activity (L1210 [6]): 165
- Survivals (Mus musculus [7]): 5
- Survivals (Mus musculus [8]): 4
- Survivals (L1210 [9]): 5

Structure (SMILES): CC(C)(C)c1ccc(S(=O)(=O)Oc2cccc3c2C(=O)C(N2CC2)=C(N2CC2)C3=O)cc1
- Average change in body weight (Mus musculus [1]): 12.8%
- Average body weight change (Mus musculus [2]): 11.8%
- Average change in body weight (Mus musculus [3]): 6.7%
- Activity (L1210 [4]): 98
- Activity (L1210 [5]): 98
- Activity (L1210 [6]): 104
- Survivals (Mus musculus [7]): 0
- Survivals (Mus musculus [8]): 0
- Survivals (L1210 [9]): 0

Structure (SMILES): O=C1C(N2CC2)=C(N2CC2)C(=O)c2c(OS(=O)(=O)c3cccc4ccccc34)cccc21
- Average change in body weight (Mus musculus [1]): 14.6%
- Average body weight change (Mus musculus [2]): 9.2%
- Average change in body weight (Mus musculus [3]): 13.7%
- Activity (L1210 [4]): 104
- Activity (L1210 [5]): 104
- Activity (L1210 [6]): 107
- Survivals (Mus musculus [7]): 0
- Survivals (Mus musculus [8]): 0
- Survivals (L1210 [9]): 0

Structure (SMILES): CCCCS(=O)(=O)Oc1cccc2c1C(=O)C(N1CC1)=C(N1CC1)C2=O
- Average change in body weight (Mus musculus [1]): 0.1%
- Average body weight change (Mus musculus [2]): -10.9%
- Average change in body weight (Mus musculus [3]): -11.3%
- Activity (L1210 [4]): 124
- Activity (L1210 [5]): 131
- Activity (L1210 [6]): 131
- Survivals (Mus musculus [7]): 0
- Survivals (Mus musculus [8]): 0
- Survivals (L1210 [9]): 0

Structure (SMILES): O=C1C(N2CC2)=C(N2CC2)C(=O)c2c(OS(=O)(=O)CCCCl)cccc21
- Average change in body weight (Mus musculus [1]): -7.5%
- Average body weight change (Mus musculus [2]): -12.1%
- Average change in body weight (Mus musculus [3]): -27.6%
- Activity (L1210 [4]): 145
- Activity (L1210 [5]): 150
- Activity (L1210 [6]): 123
- Survivals (Mus musculus [7]): 0
- Survivals (Mus musculus [8]): 0
- Survivals (L1210 [9]): 0

Structure (SMILES): CCCCCCCCCCCCCCCCS(=O)(=O)Oc1cccc2c1C(=O)C(N1CC1)=C(N1CC1)C2=O
- Average change in body weight (Mus musculus [1]): 13%
- Average body weight change (Mus musculus [2]): 9.9%
- Average change in body weight (Mus musculus [3]): 9.7%
- Activity (L1210 [4]): 91
- Activity (L1210 [5]): 91
- Activity (L1210 [6]): 96
- Survivals (Mus musculus [7]): 0
- Survivals (Mus musculus [8]): 0
- Survivals (L1210 [9]): 0

Structure (SMILES): O=C1C(N2CC2)=C(N2CC2)C(=O)c2c(OS(=O)(=O)c3ccc([N+](=O)[O-])cc3)cccc21
- Average change in body weight (Mus musculus [1]): -11.1%
- Average body weight change (Mus musculus [2]): -12.9%
- Average change in body weight (Mus musculus [3]): -13.1%
- Activity (L1210 [4]): 293
- Activity (L1210 [5]): 152
- Activity (L1210 [6]): 402
- Survivals (Mus musculus [7]): 4
- Survivals (Mus musculus [8]): 4
- Survivals (L1210 [9]): 3
